Patent US20240245670A1, “DOSING REGIMEN AND PHARMACEUTICAL COMBINATION COMPRISING 3-(1-OXOISOINDOLIN-2-YL)PIPERIDINE-2,6-DIONE DERIVATIVES” (Novartis AG, priority 2018, published 2024)

Assays:
[1] = test system: primary human Tregs; experiment: Suppressive potency of Treg cells expanded in vitro in the presence of compound (FIG. 2C); type: cell-based
From the text: (§1) FIG. 2C is a bar graph showing the suppressive potency of Treg cells expanded in the presence of Compound I-57.
(§2) Although the specific transcriptional targets of IKZF2 remain to be defined, IKZF2 binds to and represses transcription from the IL-2 promoter region (Baine 2013). […] Finally, an in vitro assay recapitulating hallmarks of T cell dysfunction/exhaustion, by sequential TCR stimulation of isolated primary human T cells, was used to test the hypothesis that […] would rescue the exhausted phenotype and enhance Teff cell activity. […] In addition to IKZF1, other known cereblon substrates including translation termination factor G1 to S phase transition 1 (GSPT1) are not degraded by I-57 (FIG. 1).

[2] = test system: isolated primary human T cells; experiment: In vitro T cell dysfunction/exhaustion assay by sequential TCR stimulation (FIG. 2D); type: cell-based; settings: Teff cells; 2.5 nM, 25 nM and 2.5 μM
From the text: as §1, §2

[3] = molecular target: T1, TMEM97 (Homo sapiens, UniProt Q5BJF2); experiment: Whole cell proteomic analysis in 293T cells; type: cell-based; settings: nearly 8000 proteins identified
T1 construct: endogenous in cells; host or cells: 293T
Protocol: Other potential degradation targets of I-57 were evaluated in 293T cells using whole cell proteomic analysis. […] Subsequent analyses have confirmed that FIZ1 is degraded by about 50% at a 10 μM concentration of I-57 ([I-57 Investigator's Brochure]). […] FIZ1 is expressed in the neural retina where it transcriptionally represses the differentiation of photoreceptors. FIZ1 is also expressed in non-ocular tissues with unknown function.

[4] = PK after single oral dose in cynomolgus monkey (FIG. 4, FIG. 5, Table 13); type: in vivo; settings: for AUC24 h (unbound) / AUC24 h/Dose (unbound) / Cmax (unbound) / Cmax/Dose (unbound): cynomolgus monkey, unbound exposure, n = 3, mean ± SD
Protocol: FIG. 4 is a graph showing the PK/PD relationship in the cynomolgus monkey after a single oral of 0.01, 0.1 or 1 mg/kg of Compound I-57.
FIG. 5. is a graph showing plasma concentration in the cynomolgus monkey of Compound I-57 and IKZF2 expression (as determined by flow cytometry) in FOXP3+ T cells from PBMCs after a single oral of 0.01, 0.1 or 1 mg/kg of Compound I-57.
The PK/PD relationship of I-57 was examined in cynomolgus monkeys after a single oral dose of 0.01, 0.1 or 1 mg/kg. I-57 plasma concentration and IKZF2 expression (as determined by flow cytometry) in FOXP3+ T cells from PBMCs were determined (FIG. 4 and FIG. 5).

[5] = PK after repeated daily oral dosing in immunized cynomolgus monkeys (Table 15); type: in vivo, cynomolgus monkey; settings: for AUC0-24 (unbound) / AUC0-24/D (unbound) / Cmax (unbound) / Cmax/D (unbound): cynomolgus monkey
Protocol: (§3) The PK/PD relationship of I-57 was further examined in cynomolgus monkeys after repeated daily oral doses of 0.1 and 3 mg/kg. In this study, a cohort of animals were initially immunized with an antigen-adjuvant mixture (KLH/Squalene). The experiment was designed to assess the effect of I-57 exposure, and the resulting IKZF2 degradation, on immune response during immunization to test the hypothesis that IKZF2 degradation would result in increased proliferation of stimulated T-cells. In the experiment, daily I-57 oral treatment was initiated 5 days after immunization. An immunization booster dose was administered on day 15. I-57 plasma concentration and IKZF2 expression (as determined by flow cytometry) in FOXP3+ T cells from PBMCs were determined (FIG. 9A and FIG. 9B).
Exposure levels for 3 mg/kg in cynomolgus monkeys are anticipated to correspond to ˜100 mg QD in humans.

[6] = test system: peripheral T cells; experiment: Proliferation of peripheral T cells (Ki67) in KLH/Squalene immunized cynomolgus monkeys (FIG. 9B); type: in vivo, cynomolgus monkey; settings: 3 mg/kg group
Protocol: FIG. 9B. is a graph showing proliferation of peripheral T cells (Mean+/−SEM, % of predose) upon treatment with 0.1 and 3 mg/kg of Compound I-57 in cynomolgus monkeys.
as §3
(§4) In order to measure the impact of I-57 treatment on the immune response following immunization, serum anti-KLH IG levels were measured longitudinally, and levels of T cell activation were measured in PBMCs by flow cytometry. […] In contrast, the proportion of proliferative peripheral T cells (denoted by Ki67 staining) was increased in the highest dose group (3 mg/kg) in the recall response phase, compared to immunization alone.

[7] = test system: anti-KLH IG; experiment: Serum anti-KLH IG levels in immunized cynomolgus monkeys; type: in vivo, cynomolgus monkey; settings: daily oral 0.1 and 3 mg/kg
Protocol: as §3, §4

[8] = In vivo non-clinical PK / high dose PK and toxicology exposure; settings: rat; between 3 mg/kg and 300 mg/kg
Protocol: The in vivo non-clinical PK profile of I-57 was investigated in mouse, rat, dog and cynomolgus monkey using I-57 free base. […] After p.o. administration, the absorption of I-57 was rapid with peak blood concentration (Tmax) occurring between 1 and 4 hours. […] In high dose PK and toxicology studies with I-57 the exposures in mouse, rat and monkey increased with dose.

[9] = Preclinical safety observations; type: in vivo
From the text: The inclusion/exclusion criteria, dose modification guidelines and safety assessments in this FIH trial account for both the disease indications and preclinical safety profile of I-57 and PDR001. Of note are the provisions put in place for the risk of autoimmune events for both PDR001 and potentially I-57.

[10] = Day 5, Group 2 (only I-57), 0.1 mg/kg/day oral
[11] = Day 5, Group 4 (I-57 + KLH + adjuvant), 0.1 mg/kg/day oral
[12] = Day 5, Group 5 (I-57 + KLH + adjuvant), 3 mg/kg/day oral
[13] = Day 29, Group 2 (only I-57), 0.1 mg/kg/day oral
[14] = Day 29, Group 4 (I-57 + KLH + adjuvant), 0.1 mg/kg/day oral
[15] = Day 29, Group 5 (I-57 + KLH + adjuvant), 3 mg/kg/day oral

T1 sequence (Q5BJF2 whole entry): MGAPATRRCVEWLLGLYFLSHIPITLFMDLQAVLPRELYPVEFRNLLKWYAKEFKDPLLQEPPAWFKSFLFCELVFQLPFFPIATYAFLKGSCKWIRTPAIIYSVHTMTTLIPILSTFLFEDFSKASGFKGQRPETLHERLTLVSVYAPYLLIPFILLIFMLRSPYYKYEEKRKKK

For `O=C1CCC(N2Cc3cc(C4CCN(Cc5ccccc5)CC4)ccc3C2=O)C(=O)N1` (stereo not shown) [Compound I-57, 3-(5-(1-benzylpiperidin-4-yl)-1-oxoisoindolin-2-yl)piperidine-2,6-dione], the “proportion of IKZF2-expressing cells” value [1] was “remained unchanged”, the “IFNγ production by IKZF2 positive cells” value [2] was “concomitant increase” and the “TMEM97 degradation (proteomics)” value [3] was “degraded”. For the same compound, the “AUC24 h (unbound)” value ([4]; single oral dose 0.01 mg/kg) was 14.1 ± 4.72 ng·h/mL, the “AUC24 h/Dose (unbound)” value ([4]; single oral dose 0.01 mg/kg) was 1410 ± 472 (ng · h/mL)/(mg/kg) and the “Cmax (unbound)” value ([4]; single oral dose 0.01 mg/kg) was 2.11 ± 0.69 ng/mL. For the same compound, the “Cmax/Dose (unbound)” value ([4]; single oral dose 0.01 mg/kg) was 211 ± 69.1 (ng/mL)/(mg/kg), the “AUC24 h (unbound)” value ([4]; single oral dose 0.1 mg/kg) was 102 ± 13.2 ng·h/mL and the “AUC24 h/Dose (unbound)” value ([4]; single oral dose 0.1 mg/kg) was 1020 ± 136 (ng · h/mL)/(mg/kg). The “Cmax (unbound)” value ([4]; single oral dose 0.1 mg/kg) was 13.4 ± 2.77 ng/mL, the “Cmax/Dose (unbound)” value ([4]; single oral dose 0.1 mg/kg) was 134 ± 27.7 (ng/mL)/(mg/kg) and the “AUC24 h (unbound)” value ([4]; single oral dose 1 mg/kg) was 610 ± 236 ng·h/mL. For the same compound, the “AUC24 h/Dose (unbound)” value ([4]; single oral dose 1 mg/kg) was 610 ± 236 (ng · h/mL)/(mg/kg), the “Cmax (unbound)” value ([4]; single oral dose 1 mg/kg) was 102 ± 45.3 ng/mL and the “Cmax/Dose (unbound)” value ([4]; single oral dose 1 mg/kg) was 102 ± 45.3 (ng/mL)/(mg/kg). For the same compound, the “dose proportionality of observed exposures” value ([4]; single oral dose of 0.01, 0.1 or 1 mg/kg) was “slightly less than dose proportional”, the “AUC0-24 (unbound)” value [5, 10] was 56.8 ng·h/mL and the “AUC0-24/D (unbound)” value [5, 10] was 567 (ng · h/mL)/(mg/kg). The “Cmax (unbound)” value [5, 10] was 7.10 ng/mL, the “Cmax/D (unbound)” value [5, 10] was 71.0 (ng/mL)/(mg/kg) and the “AUC0-24 (unbound)” value [5, 11] was 63.5 ng·h/mL. For the same compound, the “AUC0-24/D (unbound)” value [5, 11] was 634 (ng · h/mL)/(mg/kg), the “Cmax (unbound)” value [5, 11] was 11.0 ng/mL and the “Cmax/D (unbound)” value [5, 11] was 110 (ng/mL)/(mg/kg). For the same compound, the “AUC0-24 (unbound)” value [5, 12] was 2840 ng·h/mL, the “AUC0-24/D (unbound)” value [5, 12] was 946 (ng · h/mL)/(mg/kg) and the “Cmax (unbound)” value [5, 12] was 523 ng/mL. For the same compound, the “Cmax/D (unbound)” value [5, 12] was 175 (ng/mL)/(mg/kg), the “AUC0-24 (unbound)” value [5, 13] was 78.1 ng·h/mL and the “AUC0-24/D (unbound)” value [5, 13] was 782 (ng · h/mL)/(mg/kg). The “Cmax (unbound)” value [5, 13] was 13.1 ng/mL, the “Cmax/D (unbound)” value [5, 13] was 131 (ng/mL)/(mg/kg) and the “AUC0-24 (unbound)” value [5, 14] was 96.4 ng·h/mL. The “AUC0-24/D (unbound)” value [5, 14] was 965 (ng · h/mL)/(mg/kg), the “Cmax (unbound)” value [5, 14] was 18.0 ng/mL and the “Cmax/D (unbound)” value [5, 14] was 180 (ng/mL)/(mg/kg). The “AUC0-24 (unbound)” value [5, 15] was 3460 ng·h/mL, the “AUC0-24/D (unbound)” value [5, 15] was 1150 (ng · h/mL)/(mg/kg) and the “Cmax (unbound)” value [5, 15] was 504 ng/mL. For the same compound, the “Cmax/D (unbound)” value [5, 15] was 169 (ng/mL)/(mg/kg), the “human dose anticipated to correspond to exposure levels” value ([5]; exposure levels for 3 mg/kg in cynomolgus monkeys) was roughly 100 mg QD and the “levels of Ki67 until the end of the study” value [6] was “remained elevated”. The “anti-IgG titers elicited by the immunization” value [7] was “not further enhanced”, the “increase in AUC with dose” value [8] was “roughly dose proportional” and the “preclinical observation (ECG)” value [9] was “QTc prolongation”. The “preclinical observation (urine)” value [9] was “hematuria and proteinuria”.
